{"source": "patent US20150208661A1", "about": "“METHOD FOR PREPARING BROMINE BASED BIOCIDAL AQUEOUS COMPOSITIONS” (BROMINE COMPOUNDS LTD., priority 2012, published 2015)", "key": {"[1]": {"system": "Pseudomonas aeruginosa (ATCC 15442)", "experiment": "Biocidal activity against simulated biofilm system (alginate beads with entrapped bacteria)", "type": "cell-based", "settings": "pH 8", "excerpt": "A biofilm simulation system, alginate beads, developed by the Biofilm Bozeman Institute Montana (Grobe, K. J, Zahller, J and Stewart P. S., 2002 in “Role of dose concentration in biocide efficacy against Pseudomonas aeruginosa Biofilms”, J. Industrial Microbiology & Biotechnology, vol. 29, pp 10-15), was used in order to evaluate the efficacy of the biocide solution against biofilm.\nThe biofilm simulation was created by entrapping bacteria in alginate gel beads. A plate of R2A agar was streaked with Pseudomonas aeruginosa (ATCC 15442) and incubated at 35° C. overnight. Buffer phosphate at pH 7.2 was used to scrap off the bacteria from the agar plate and to create a suspension. The bacterial suspension was mixed with an equal volume of an aqueous 4% sodium alginate solution, to make a final 2% alginate solution. The alginate and bacterial slurry were placed in a 50 ml syringe attached to a gauge needle, connected to a compressed air tank, allowing the syringe to be pressurized. At 20 psig pressure a stream of small drops was forced out and dropped into a stirred solution of 50 mM CaCl2. The Ca^+2 cross linked the alginate, and semi solid beads with entrapped bacterial cells were formed. The beads were allowed to stir in the CaCl2 solution for about 20 minutes, and then rinsed in a dilute 5 mM CaCl2 solution. Several flasks containing 100 beads each were incubated overnight at 35° C. on a rotating shaker in a buffer solution (at pH 8) with 5 mM addition of CaCl2 to maintain the beads structure. The resulting beads diameter was about 2 mm.\nAt the beginning of the experiment, the supernatant of the beads buffer suspension containing 5 mM CaCl2 was decanted and replaced by the 100 ml biocide solution with the required concentration (at pH 8). After different interval contact times, 10 beads were removed and placed in a 5 g/l sodium thiosulfate solution containing 50 mM sodium citrate. The sodium citrate was used to dissolve the alginate gel and release the bacteria into the solution. The neutralizer-citrate solution was placed in the refrigerator for 2 hours, than diluted and placed on R2A agar plates using pour plate technique. The plates were incubated at 35° C. for 24-48 hours and counted. The efficacy and toxicity of the neutralizer were checked as well as a control experiment without biocide addition. Four concentrations of active chlorine (0.5, 1, 2.5 and 5 ppm) were tested at four different contact times (5, 15, 30, and 60 min). Table 1-2 describe the surviving colony forming units (CFU) of the bacteria after different biocides treatment at different contact times."}, "[2]": {"system": "Inoculum of bacteria (activated sludge taken from domestic waste water treatment plant in Haifa)", "experiment": "Biocidal efficacy under different TOC loading", "type": "cell-based", "settings": "30 min, pH 7", "experimental": "Inoculum of bacteria (activated sludge taken from domestic waste water treatment plant in Haifa), R2A agar for general counting, and Tryptone were employed. The biocidal efficacy of the antifouling composition at different organic loads of 0, 10, 30 and 50 ppm TOC, was examined under different biocidal concentrations (5 and 10 ppm) at pH 7.\n1) 1 ml of inoculum with the appropriate biocide concentration (5, 10 ppm) was added to tryptone solutions, 100 ml each, with different concentrations of TOC (0, 10, 30 and 50 ppm). […] The result stands for the bacteria count at zero time. 3) After 30 min. of shaking (100 rpm), 1 ml of each sample was transferred to a tube filled with 9 ml of the neutralization solution […].\nAn aliquot of 1 ml was taken from this solution and added to another tube containing 9 ml of buffer solution. The solution was mixed under vortex. This operation was repeated for 4 more times.\n4) 1 ml from the two lowest dilutions was inoculated on a R2A agar (by the pour plate method). 5) After the plates were incubated at 25° C. for 5-7 days, the bacteria count was recorded."}}}
{"smiles": "OCl", "note": "[NaOCl, sodium hypochlorite]", "values": [{"measurement": "survival of bacteria (CFU)", "setting": "[1]; biocide 0.5 ppm as Cl2, contact time 0 min", "value": "1.20E+07", "unit": "CFU"}, {"measurement": "survival of bacteria (CFU)", "setting": "[1]; biocide 0.5 ppm as Cl2, contact time 5 min", "value": "6.73E+06", "unit": "CFU"}, {"measurement": "survival of bacteria (CFU)", "setting": "[1]; biocide 0.5 ppm as Cl2, contact time 15 min", "value": "6.48E+06", "unit": "CFU"}, {"measurement": "survival of bacteria (CFU)", "setting": "[1]; biocide 0.5 ppm as Cl2, contact time 30 min", "value": "6.53E+06", "unit": "CFU"}, {"measurement": "survival of bacteria (CFU)", "setting": "[1]; biocide 0.5 ppm as Cl2, contact time 60 min", "value": "4.08E+06", "unit": "CFU"}, {"measurement": "survival of bacteria (CFU)", "setting": "[1]; biocide 1 ppm as Cl2, contact time 0 min", "value": "1.20E+07", "unit": "CFU"}, {"measurement": "survival of bacteria (CFU)", "setting": "[1]; biocide 1 ppm as Cl2, contact time 5 min", "value": "7.25E+06", "unit": "CFU"}, {"measurement": "survival of bacteria (CFU)", "setting": "[1]; biocide 1 ppm as Cl2, contact time 15 min", "value": "4.18E+06", "unit": "CFU"}, {"measurement": "survival of bacteria (CFU)", "setting": "[1]; biocide 1 ppm as Cl2, contact time 30 min", "value": "4.28E+06", "unit": "CFU"}, {"measurement": "survival of bacteria (CFU)", "setting": "[1]; biocide 1 ppm as Cl2, contact time 60 min", "value": "1.81E+06", "unit": "CFU"}, {"measurement": "survival of bacteria (CFU)", "setting": "[1]; biocide 2.5 ppm as Cl2, contact time 0 min", "value": "1.20E+07", "unit": "CFU"}, {"measurement": "survival of bacteria (CFU)", "setting": "[1]; biocide 2.5 ppm as Cl2, contact time 5 min", "value": "6.40E+06", "unit": "CFU"}, {"measurement": "survival of bacteria (CFU)", "setting": "[1]; biocide 2.5 ppm as Cl2, contact time 15 min", "value": "3.10E+06", "unit": "CFU"}, {"measurement": "survival of bacteria (CFU)", "setting": "[1]; biocide 2.5 ppm as Cl2, contact time 30 min", "value": "8.28E+05", "unit": "CFU"}, {"measurement": "survival of bacteria (CFU)", "setting": "[1]; biocide 2.5 ppm as Cl2, contact time 60 min", "value": "9.38E+04", "unit": "CFU"}, {"measurement": "survival of bacteria (CFU)", "setting": "[1]; biocide 5 ppm as Cl2, contact time 0 min", "value": "1.20E+07", "unit": "CFU"}, {"measurement": "survival of bacteria (CFU)", "setting": "[1]; biocide 5 ppm as Cl2, contact time 5 min", "value": "4.55E+06", "unit": "CFU"}, {"measurement": "survival of bacteria (CFU)", "setting": "[1]; biocide 5 ppm as Cl2, contact time 15 min", "value": "7.03E+05", "unit": "CFU"}, {"measurement": "survival of bacteria (CFU)", "setting": "[1]; biocide 5 ppm as Cl2, contact time 30 min", "value": "2.70E+03", "unit": "CFU"}, {"measurement": "survival of bacteria (CFU)", "setting": "[1]; biocide 5 ppm as Cl2, contact time 60 min", "value": 1.00, "unit": "CFU"}, {"measurement": "% kill", "setting": "[2]; biocide 5 ppm, TOC 0 ppm", "value": 96.9, "unit": "%"}, {"measurement": "% kill", "setting": "[2]; biocide 5 ppm, TOC 10 ppm", "value": 86.0, "unit": "%"}, {"measurement": "% kill", "setting": "[2]; biocide 5 ppm, TOC 30 ppm", "value": 30.6, "unit": "%"}, {"measurement": "% kill", "setting": "[2]; biocide 5 ppm, TOC 50 ppm", "value": 30.6, "unit": "%"}, {"measurement": "% kill", "setting": "[2]; biocide 10 ppm, TOC 0 ppm", "value": 99.9, "unit": "%"}, {"measurement": "% kill", "setting": "[2]; biocide 10 ppm, TOC 10 ppm", "value": 98.8, "unit": "%"}, {"measurement": "% kill", "setting": "[2]; biocide 10 ppm, TOC 30 ppm", "value": 95.4, "unit": "%"}, {"measurement": "% kill", "setting": "[2]; biocide 10 ppm, TOC 50 ppm", "value": 88.3, "unit": "%"}]}
